We go through two compounds from patent US20210401776A1, “METHOD OF TREATING […] SYNDROMES USING FENFLURAMINE ENANTIOMERS” (ZOGENIX INTERNATIONAL LIMITED, priority 2018, published 2021).

“Also recorded” adds a separate entry of the source.

In data set [1] the test system is homozygous scn1Lab−/− mutants. Kind of data set: zebrafish locomotor assay (total distance in large movements, lardist). The format is in vivo, zebrafish (Danio rerio). As to conditions: for reduction in seizure behavior: fixed concentration, FIG. 3. From the text: (Baraban et al, 2013). Additional phenotypes of these mutants include: abnormal optokinetic response (OKR; 5 dpf); darkened pigmentation; death by 14 dpf; spontaneous seizure-like activity; abnormal (forebrain electrographic activity (3-7 dpf); seizure activity; lower levels of serotonin in scn1lab^−/− head homogenates at 7 dpf; zebrafish express orthologs of human serotonin (5HT) receptor subtypes at 5 dpf; nighttime hyperactivity (5 dpf); in open field-increased thigmotaxis. decreased movement (at 5 dpf); no differences in GABAergic neurons compared to wild type (5 dpf); 5-HT2a (hitr2aa/b) and S-HT2c; (htr2c11) orthologs expressed in larval heads in wild-type and scn1lab−/− mutants and in adult wild-type brains.
To assay the locomotor activity of homozygous scn1Lab−/− mutants and control WT scn1Lab+/+, zebrafish larvae were placed one larva per well in a 96-well plate in 100 μL of embryo medium from 4 to 8 days post-fertilization (dpf). Each day the larvae are tracked in an automated tracking device (ZebraBox™ apparatus; Viewpoint, Lyon, France) for 10 min after 30 min habituation (100-second integration interval). All recordings were performed at the same time during daytime period. The total distance in large movements was recorded and quantified using ZebraLab™ software (Viewpoint, Lyon, France). Data was pooled together from at least three independent experiments with at least 24 larvae per condition.
Scn1Lab^−/− mutants and WT scn1Lab+/+ larvae are arrayed in the same plate and treated at 6 days post fertilization (dpf) with the test compounds (25 μM), or VHC in individual wells of a 96-well plate. After incubation at 28° C. on a 14/10 hour light/dark cycle and 30-min chamber habituation 6 and 7 dpf larvae are tracked for locomotor activity for 10 min (100-second integration interval) under dark conditions. An incubation time of 1.5 hours is further referred to as short treatment (6 dpf). Furthermore, these larvae are analyzed after more than 22 hours incubation (7 dpf), i.e. long treatment. The total locomotor activity is quantified using the parameter lardist and plotted in cm. Data for each compound is pooled together from multiple independent experiments with at least 9 larvae per treatment condition.

For data set [2], the system named is homozygous scn1Lab−/− mutants. Kind of data set: epileptiform activity, open-field recordings in larval forebrain (LFP assay). The format is in vivo, zebrafish (Danio rerio). The following applies: for anti-epileptiform activity (frequency and cumulative duration of epileptiform events over 10 minutes): 50 micromolar, FIGS. 4 and 5; for LFP Assay: Table 1, 25, 59 and 100 μM, oral via embryo medium.

The test system of data set [3] is WT scn1Lab+/+ zebrafish larvae. Put plainly: maximal tolerated concentration (MTC). The format is in vivo, zebrafish (Danio rerio). The following applies: no signs of toxicity in 12 out of 12 larvae within 48 hours of exposure. On the procedure: To evaluate the maximal tolerated concentration (MTC) of each compound, 6 dpf-old WT scn1Lab+^+/+ zebrafish larvae were incubated in a 96-well plate (tissue culture plate, flat bottom, FALCON®, USA) with different concentrations of compound or VHC at 28° C. on a 14/10 hour light/dark cycle under standard aquaculture conditions (medium is replenished daily). Each larva was individually checked under the microscope during a period of 48 hours for the following signs of toxicity: decreased or no touch response upon a light touch of the tail, loss of posture, body deformation, edema, changes in heart rate or circulation and death. […] MTC was determined as 100 micromolar (μM) for (+)-fenfluramine and both norfenfluramine enantiomers. A MTC of 50 μM was determined for (−)-fenfluramine.

Data set [4] concerns dizocilpine-treated mice. Kind of data set: spontaneous alternation in the Y-maze, dizocilpine-induced amnesia model. The format is in vivo, Male Swiss OF-1 mice.
In data set [5] the test system is dizocilpine-treated mice. Put plainly: step-through passive avoidance, dizocilpine-induced amnesia model. The format is in vivo, Male Swiss OF-1 mice.
The test system of data set [6] is dizocilpine-treated mice. Put plainly: dizocilpine-induced learning deficits, statements covering both tests (Y-maze and passive avoidance). The format is in vivo, Male Swiss OF-1 mice. Here is the method:
Experiments were conducted to determine the dose-response effects of fenfluramine (FEN) and norfenfluramine (NOR), racemate and (+)- and (−)-isomers, in an in vivo mouse model; the dizocilpine-induced amnesia model (described below) is used to test responses to drugs acting at the sigma-1 receptor (S1R) (Maurice et al., 1994a,b; Maurice, et al., 1998, Neuroscience 83:413-428).
The drugs were administered intraperitoneally (“ip” or “IP”) with dizocilpine (0.15 mg/kg) and tested in the spontaneous alternation test on day 1 and in the passive avoidance test on days 2-3.
The apparatus consisted of a 2-compartment box, with one illuminated with white polyvinylchloride (PVC) walls and a transparent cover (15×20×15 cm high), one with black polyvinylchloride walls and cover (15×20×15 cm high), and a grid floor. A guillotine door separated each compartment. A 60 W lamp was positioned 40 cm above the apparatus lit the white compartment during the experimental period. Scrambled foot shocks (0.3 mA for 3 s) were delivered to the grid floor using a shock generator scrambler (Lafayette Instruments, Lafayette, Mass., USA). The guillotine door was initially closed during the training session. Each mouse was placed into the white compartment. After 5 s, the door was raised. When the mouse entered the darkened compartment and placed all its paws on the grid floor, the door was gently closed and the 3-scrambled foot shock was delivered for 3 s. The step-through latency, i.e., the latency spent to enter the dark compartment, and the level of sensitivity to the shock were recorded. The latter was evaluated as: 0=no sign; 1=flinching reactions; 2=flinching and vocalization reactions. The retention test was carried out 24 h after training. Each mouse was placed again into the white compartment. After 5 s, the door was raised. The step-through latency was recorded up to 300 s. Animals entered the darkened compartment or were gently pushed into it and the escape latency, i.e., the time spent to return into the white compartment, was also measured up to 300 s. Results were expressed as median and interquartile (25%-75%) range.
The Y-maze is made of grey PVC. Each arm is 40 cm long, 13 cm high, 3 cm wide at the bottom, 10 cm wide at the top, and converged at an equal angle. Each mouse was placed at the end of one arm and allowed to move freely through the maze during an 8-min session. The series of arm entries, including possible returns into the same arm, were checked visually. An alternation was defined as entries into all three arms on consecutive occasions. The number of maximum alternations was therefore the total number of arm entries minus two and the percentage of alternation was calculated as: actual alternations/maximum alternations)×100. Parameters included the percentage of alternation (memory index) and total number of arm entries (exploration index).

The conditions of data set [7]: in vivo; cited from earlier work.

With `CCN[C@@H](C)Cc1cccc(C(F)(F)F)c1` [(+)-Fenfluramine, (2S)-N-ethyl-1-[3-(trifluoromethyl)phenyl]propan-2-amine], the Conclusions result in data set [1] (Table 1, locomotor and LFP assays) was “(+)-FFA is more effective than racemic FFA”. Moreover, the “antiseizure activity in the zebrafish locomotor assay” value in data set [1] (scn1Lab−/− mutants) was “more efficacious than (−)-fenfluramine”. In addition, the “reduction in seizure behavior” value in data set [1] (scn1Lab−/− mutants) stood at 84%. Further, the “potency in treating symptoms of epilepsy compared to levofenfluramine” value in data set [1] (zebrafish, in vivo) is on record as “approximately twice”. Besides, the “anti-epileptiform activity (frequency and cumulative duration of epileptiform events over 10 minutes)” value in data set [2] was “comparable”. Also, the “LFP Assay” value in data set [2] was “Most effective in reducing spikes; also recorded: Normal dose-response; higher”. Further, the “maximum tolerated concentration (MTC)” value in data set [3] turned out to be 100 µM. Besides, the “PP (%)” value in data set [4] (Table 3 Y-Maze, drug alone 0.1 mg/kg IP) was 1.3 ± 7.9%; in data set [4] (Table 3 Y-Maze, drug alone 0.3 mg/kg IP) it was 37.9 ± 9.4 ^2%; in data set [4] (Table 5 YMT, drug alone 0.1 mg/kg ip), 8.68 ± 8.7%; in data set [4] (Table 5 YMT, drug alone 0.3 mg/kg ip), 40.2 ± 11.3^3%; in data set [4] (Table 6 YMT, drug alone 0.1 mg/kg ip), 0.4 ± 11.5%; in data set [4] (Table 6 YMT, drug alone 0.3 mg/kg ip), 46.7 ± 8.9 ^3%. For the same compound, the “PP (%)” value in data set [5] (Table 3 StepThrough/PassiveAvoidance, drug alone 0.1 mg/kg IP) was 9.0 ± 15.8%; in data set [5] (Table 3 StepThrough/PassiveAvoidance, drug alone 0.3 mg/kg IP), 24.8 ± 14.9 ^4%; in data set [5] (Table 5 STPA, drug alone 0.1 mg/kg ip) it was 11.6 ± 13.6%; in data set [5] (Table 5 STPA, drug alone 0.3 mg/kg ip) it was 35.2 ± 14.2^6%; in data set [5] (Table 6 STPA, drug alone 0.1 mg/kg ip), 15.6 ± 17.3%; in data set [5] (Table 6 STPA, drug alone 0.3 mg/kg ip) it was 31.9 ± 16.3 ^6%. In addition, in data set [6] (mouse, in vivo), the “behavior in vivo at S1R” value is listed as “behaved in vivo as S1R positive modulators”. Further, the mean elimination half-life in data set [7] is 19 h.
On to `CCN[C@H](C)Cc1cccc(C(F)(F)F)c1` [(−)-Fenfluramine, (2R)-N-ethyl-1-[3-(trifluoromethyl)phenyl]propan-2-amine], for which the “reduction in seizure behavior” value in data set [1] (scn1Lab−/− mutants) worked out at 41%. Besides, in data set [2], the “anti-epileptiform activity (frequency and cumulative duration of epileptiform events over 10 minutes)” value was “comparable”. Further, in data set [2], the “LFP Assay” value is “Also reduces spikes but less; also recorded: Normal dose-response; higher”. For the same compound, in data set [3], the “maximum tolerated concentration (MTC)” value is 50 µM. For the same compound, the “PP (%)” value in data set [4] (Table 4 Y Maze, drug alone 0.3 mg/kg IP) was 3.2 ± 8.1%; in data set [4] (Table 4 Y Maze, drug alone 1 mg/kg IP), 13.8 ± 10.5 ^2%; in data set [5] (Table 4 StepThrough/PassiveAvoidance, drug alone 0.3 mg/kg IP) it was 3.9 ± 8.4%; in data set [5] (Table 4 StepThrough/PassiveAvoidance, drug alone 1 mg/kg IP) it was 7.3 ± 13.8 ^4%. The “effect on PRE-084 efficacy” value in data set [6] (1 mg/kg on effective doses of PRE-084 (0.3-1 mg/kg), FIG. 10 (e, f)) is listed as “without effect on PRE-084 efficacy”; in data set [6] (combined with PRE-084 in dizocilpine-treated mice) it was “without any effect on PRE-084 efficacy”. In addition, in data set [6] (mouse, in vivo), the “behavior as S1R antagonist” value is reported as “does not behave as a S1R antagonist”. The mean elimination half-life in data set [7] is 25 h.
